According to patent publication US20180155757A1, “IDENTIFICATION OF BACTERIA THAT ARE RESISTANT TO CARBAPENEMS BY MEMBRANE IMPERVIOUSNESS” (BIOMÉRIEUX, priority 2015, published 2018):

How the values were obtained:
Assay type in all cases: cell-based
[1] = tested on: Enterobacter aerogenes EA 27; assay: MIC of PMBN, microdilution in liquid medium
Procedure: (§1) Likewise, prior to carrying out the discriminating method according to the invention, the PMBN-sensitivity of each of the model strains used was evaluated by means of a method of microdilution in liquid medium.
(§2) To do this, each of the strains was cultured in Mueller-Hinton broth (MHII-Becton Dickinson®, United States). On inocula containing 2×10^5 CFU/ml, serial doubling dilutions were carried out for the PMBN in order to determine the minimum inhibitory concentrations. The PMBN-sensitivity was read after 18 hours of incubation at 37° C., by addition of 0.2 mg/ml of iodonitrotetrazolium chloride (Sigma-Aldrich®, United States).

E. cloacae 9402034 = assay: MIC of PMBN
Procedure: as §1, §2

E. aerogenes 9306071 = assay: MIC of PMBN
Procedure: as §1, §2

[2] = tested on: K. pneumoniae 1108007 (VIM-1 producer); assay: MIC of PMBN
Procedure: as §1, §2

[3] = tested on: K. pneumoniae 0404024 (VIM-1 producer); assay: MIC of PMBN
Procedure: as §1, §2

[4] = tested on: K. pneumoniae 1104053 (OXA-48 producer); assay: MIC of PMBN
Procedure: as §1, §2

[5] = tested on: E. cloacae 1008096 (VIM-1 producer); assay: MIC of PMBN
Procedure: as §1, §2

[6] = tested on: E. coli 1012292 (KPC-2 producer); assay: MIC of PMBN
Procedure: as §1, §2

[7] = tested on: E. coli 0506040 (VIM-1 producer); assay: MIC of PMBN
Procedure: as §1, §2

E. cloacae 9304026 = assay: MIC of PMBN
Procedure: as §1, §2

[8] = tested on: E. coli 1008077 (VIM-1 producer); assay: MIC of PMBN
Procedure: as §1, §2

E. coli 1204043 = assay: MIC of PMBN
Procedure: as §1, §2

[9] = tested on: S. marcescens 1008175 (IMP-1 producer); assay: MIC of PMBN
Procedure: as §1, §2

K. pneumoniae 1002015 = assay: MIC of PMBN
Procedure: as §1, §2

[10] = tested on: K. pneumoniae 0901027 (KPC-3 producer); assay: MIC of PMBN
Procedure: as §1, §2

[11] = tested on: E. cloacae 1008079 (IMP-1 producer); assay: MIC of PMBN
Procedure: as §1, §2

[12] = tested on: E. cloacae 1008073 (VIM-1 producer); assay: MIC of PMBN
Procedure: as §1, §2

[13] = tested on: K. pneumoniae 1012335 (OXA-48 producer); assay: MIC of PMBN
Procedure: as §1, §2

[14] = tested on: K. pneumoniae 1108002 (KPC-3 producer); assay: MIC of PMBN
Procedure: as §1, §2

E. aerogenes 9203076 = assay: MIC of PMBN
Procedure: as §1, §2

C. freundii 0403012 = assay: MIC of PMBN
Procedure: as §1, §2

[15] = tested on: K. pneumoniae 1108001 (KPC-2 producer); assay: MIC of PMBN
Procedure: as §1, §2

[16] = tested on: E. cloacae 1101172 (NDM producer); assay: MIC of PMBN
Procedure: as §1, §2

E. aerogenes 1204048 = assay: MIC of PMBN
Procedure: as §1, §2

[17] = tested on: E. cloacae 0901026 (KPC-2 producer); assay: MIC of PMBN
Procedure: as §1, §2

K. pneumoniae 1204034 = assay: MIC of PMBN
Procedure: as §1, §2

C. freundii 1204047 = assay: MIC of PMBN
Procedure: as §1, §2

polymyxin B nonapeptide [PMBN]
MICPMBN [1]: MICPMBN = 1024 μg/ml
MICPMBN (E. cloacae 9402034): MICPMBN >1024 μg/ml
MICPMBN (E. aerogenes 9306071): MICPMBN = 1024 μg/ml
MICPMBN [2]: MICPMBN = 1024 μg/ml
MICPMBN [3]: MICPMBN >1024 μg/ml
MICPMBN [4]: MICPMBN = 1024 μg/ml
MICPMBN [5]: MICPMBN = 1024 μg/ml
MICPMBN [6]: MICPMBN = 1024 μg/ml
MICPMBN [7]: MICPMBN = 128 μg/ml
MICPMBN (E. cloacae 9304026): MICPMBN >1024 μg/ml
MICPMBN [8]: MICPMBN = 1024 μg/ml
MICPMBN (E. coli 1204043): MICPMBN = 512 μg/ml
MICPMBN [9]: MICPMBN = 1024 μg/ml
MICPMBN (K. pneumoniae 1002015): MICPMBN = 1024 μg/ml
MICPMBN [10]: MICPMBN >1024 μg/ml
MICPMBN [11]: MICPMBN >1024 μg/ml
MICPMBN [12]: MICPMBN = 1024 μg/ml
MICPMBN [13]: MICPMBN = 1024 μg/ml
MICPMBN [14]: MICPMBN >1024 μg/ml
MICPMBN (E. aerogenes 9203076): MICPMBN = 1024 μg/ml
MICPMBN (C. freundii 0403012): MICPMBN = 256 μg/ml
MICPMBN [15]: MICPMBN = 1024 μg/ml
MICPMBN [16]: MICPMBN = 1024 μg/ml
MICPMBN (E. aerogenes 1204048): MICPMBN >1024 μg/ml
MICPMBN [17]: MICPMBN = 1024 μg/ml
MICPMBN (K. pneumoniae 1204034): MICPMBN = 256 ng/ml
MICPMBN (C. freundii 1204047): MICPMBN = 1024 μg/ml
